How the values were obtained:
[1] = system: anti-BCMA CAR T cells with RPMI-8226; experiment: Cytokine production of anti-BCMA CAR T cells co-cultured with RPMI-8226 with or without lenalidomide; type: cell-based, human
Text: Culture of T cells not expressing the anti-BCMA CAR (mock) was used as a control.

OPM-2 target cells = experiment: Cytolytic activity of anti-BCMA CAR T cells co-cultured with OPM-2 target cells with or without lenalidomide; type: cell-based, human
Protocol: […]. The OPM-2 cells were labeled with NucLight Red (NLR) to permit tracking of target cells by microscopy substantially as described above. […] […].
[…]. Cytolytic activity was measured by loss of red fluorescent cells. […].

anti-CD19 CAR+ T cells = experiment: Serial restimulation of anti-CD19 CAR+ T cells with K562-CD19 cells: expansion; type: cell-based, human; details: 1 μM lenalidomide, 4 rounds of stimulation, 12 days, two donors
Protocol: The ability of anti-CD19 CAR+ T cells to expand ex vivo following repeated stimulations was assessed using methods substantially as described in Example 2. […] For each donor, cells were harvested every 3-5 days from each experimental condition in the wells and counted, and restimulated with new target cells using the same culture conditions after resetting cell number to initial seeding density for each round. A total of 4 rounds of stimulation during a 12 day culture period were carried out. For each round of stimulation, the total number of cells was determined, and the results were depicted as the fold-change of cell number after stimulation (FIG. 17A) or number of doublings compared to initial number (FIG. 17B).

OPM-2-luciferase tumor = experiment: OPM-2 orthotopic xenograft mouse model, Study 2 (concurrent or delayed lenalidomide); type: in vivo
Protocol: In a further study, NOD/Scid/gc^−/− (NSG) mice were injected (i.v.) with OPM-2-luciferase cells as described in Study 1 above and allowed to engraft for 14 days prior to CAR-T (or mock) cell; infusion (i.v.).
At 14 days after tumor cell injection (day 0), a subtherapeutic dose of CAR+ T cells (1×10^6 CAR-T cells (generated from two different donors)) or mock control cells was injected intravenously. Data are presented as mean±SEM. For in vivo survival, a Gehan-Breslow-Wilcoxon test was used to compare groups.
FIG. 10E depicts the results of tumor burden assessment through day 60, as analyzed by the bioluminescence […]. […] P values were obtained by likelihood ratio tests comparing the full model with the effect of interest against the model without the effect of interest.
Blood from the treated mice was collected for CAR-T pharmacokinetic analysis, and cells were stained with antibodies to exclude mouse-specific cells (H2-kd, TER119, and muCD45) and analyzed by flow cytometry. Cells were gated on CD45+CD3+CAR+ and the cells per microliter of blood was determined. For pharmacokinetic measurements, each time point was analyzed by one-way ANOVA and Tukey post-hoc test. FIGS. 10G and 10H show the flow cytometric analysis of mock control cells and CAR-T cells in the blood of the mice at days 8, 14, 22, and 28 following injection of the CAR-T cells from two donors.

anti-BCMA CAR+ T cells = experiment: T cell markers and proliferation of anti-BCMA CAR+ T cells stimulated with BCMA-conjugated beads; type: cell-based, human
Protocol: B cell maturation antigen (BCMA) was conjugated to beads by covalently coupling a BCMA-Fc fusion polypeptide, containing soluble human BCMA fused at its C-terminus to an Fc region of IgG, to the surface of commercially available tosyl-activated magnetic beads (ThermoFisher, Waltham Mass.). The beads are superparamagnetic, non-porous, monodisperse, tosylactivated beads that covalently bind primary amino and sulfhydryl groups. Conjugation was performed using beads having a diameter of approximately 2.8 μm (designated M-280) or 4.5 μm (designated M-450).
Various concentrations of the BCMA-Fc fusion protein ranging from 5 μg to 200 μg were added to approximately 1 mL of tocylactivated beads (e.g. containing about 4×10^9 tocylactivated beads having a diameter of 2.8 μm or about 4×10^8 tocylactivated beads having a diameter of 4.5 μm). Covalent coupling was performed by overnight incubation at 37° C. in phosphate buffered solution (PBS) containing 0.1% human serum albumin (HSA). Beads were washed and resuspended in 1 mL PBS with 0.1% HSA. After conjugation, the bead concentration was determined using a Cellometer. In the examples below, the BCMA-conjugated beads used in various studies are referred to with reference either to the amount of BCMA-Fc antigen added per mL or the antigen concentration (μg/mL) during the conjugation, e.g. 5 μg or 5 μg/mL; 50 μg or 50 μg/mL; 200 μg or 200 μg/mL and so on.
Approximately 1.5×10^6 CAR+ T cells were added to wells of a 12-well plate and were incubated with beads from a 200 μg/ml BCMA-conjugated bead composition at a ratio of CAR+ T cell to BCMA-conjugated bead of 1:0.3, 1:1 or 1:3 (approximately 0.5×10^6, 1.5. 10^6, and 4.5×10^6 beads per well, respectively). As controls, 5 μg/mL anti-CD3 antibody was coated to wells (sub-optimal concentration for stimulation) or cells were seeded in the absence of any agent (no stimulation control). […]
In a further experiment, anti-BCMA CAR-T cell compositions produced substantially as described in Example 1 were plated in 96-well plates at a density of 5×10^5 cells per well. […]

[2] = system: anti-CD19 CAR-expressing T cells; experiment: Surface markers after anti-idiotypic antibody stimulation; type: cell-based, human
Text: CAR-expressing T cells were stained for CD3, CD4, CD8 and the surrogate marker for CAR expression, and also for the following markers: CD25, PD-1, and CD69.

[3] = system: anti-CD19 CAR-expressing T cells; experiment: T cell surface markers of anti-CD19 CAR-expressing T cells incubated with K562.CD19; type: cell-based, human; details: all donors and E:T ratios

`Nc1cccc2c1CN(C1CCC(=O)NC1=O)C2=O` (centres unmarked) [lenalidomide, 3-(4-amino-1-oxo-1,3-dihydro-2H-isoindol-2-yl)piperidine-2,6-dione] was tested. Which “CAR-dependent cytokine production and/or accumulation (IL-2, IFNγ, TNF-α)” value ([1]; 10 μM lenalidomide, E:T 0.3:1, 48 hours) did it give?
Its value is “increase in CAR-dependent cytokine production and/or accumulation”.

What about the “cytokine production by CAR-expressing T cells (IFN-γ, IL-2, TNF-α)” value ([1]; three healthy donors and one patient donor) of the same compound?
The value was “significantly increased across all donors and cytokines”.

What about the “cytolytic activity of anti-BCMA CAR+ T cells” value (OPM-2 target cells; 0.01-10 μM lenalidomide, E:T 1:1, 7 days, four donors) of the same compound?
The value was “enhance cytolytic activity of the anti-BCMA CAR+ T cells against OPM-2 target cells, in a dose-dependent manner”.

What about the “antigen-specific anti-BCMA CAR-T cytolytic activity” value (OPM-2 target cells; healthy donor and multiple myeloma patient, E:T 0.3:1, 6 to 7 days) of the same compound?
The value was “increased by lenalidomide in a concentration-dependent manner”.

And the “anti-BCMA CAR T cytolytic activity” value (OPM-2 target cells; increased concentrations of lenalidomide, all donors)?
Its value is “Increased anti-BCMA CAR T cytolytic activity against OPM-2 target cells”.

And the “cell expansion of anti-CD19 CAR+ T cells” value (anti-CD19 CAR+ T cells)?
Its value is “no change or only a minor effect in cell expansion”.

And the “tumor growth and tumor burden” value (OPM-2-luciferase tumor; added to subtherapeutic CAR+ T cells from both donors, through day 60)?
Its value is “slower tumor growth and reduced tumor burden”.

And the “CAR T counts in the peripheral blood” value (OPM-2-luciferase tumor; concurrent lenalidomide, after 7 days, not at later time points)?
Its value is “increased CAR T counts in the peripheral blood”.

And the tumor burden (OPM-2-luciferase tumor; concurrent lenalidomide, donor 1, vs vehicle with anti-BCMA CAR T)?
The tumor burden was “significant decrease in tumor burden”.

And the survival (OPM-2-luciferase tumor; concurrent lenalidomide, donor 1 and donor 2)?
The survival was “increased survival”.

What about the “expression level of Ikaros” value (anti-BCMA CAR+ T cells; 0.5 μM or 5 μM lenalidomide, 18 hours, all conditions) of the same compound?
Its value is “decreased”.

What about the “proliferative capacity of T cells (CTV)” value (anti-BCMA CAR+ T cells; 5 μM lenalidomide, 200 μg BCMA beads, 1:1, three days) of the same compound?
The value was “increased the proliferative capacity of T cells”.

What about the “surface expression of CD25 in CD4+ and CD8+ T cells” value (anti-BCMA CAR+ T cells; 5 μM lenalidomide, BCMA-conjugated beads or anti-CD3) of the same compound?
Its value is “further increased the extent of surface expression of CD25”.

And the “surface markers CD25 and CD69” value ([2]; CD4+ and CD8+ CAR-expressing T cells, day 4, some donors)?
Its value is “increase in surface markers CD25 and CD69”.

What about the “expression of PD-1” value ([2]; day 4, unchanged or decreased in the other donors) of the same compound?
The value was “increased in the presence of Compound 1 or lenalidomide in cells generated from at least one donor”.

And the “expression of CD27” value [3]?
Its value is “downregulated in a concentration-dependent manner”.

And the “expression of CD45RO” value [3]?
The value was “increased”.
